Activity calls are given as the source filed them. The calls are words filed in the database; no cut-off is given here.
How the values were obtained:
[1] = test system: MG-22A; experiment: Cytotoxicity against mouse MG-22A cells after 72 hrs by MTT assay; type: functional, cell-based
[2] = Cytotoxicity against mouse CCL8 cells after 72 hrs by MTT assay; type: functional, cell-based; details: CCL8, 72 h
[3] = Acute toxicity in po dosed rat; type: organism-based; details: in vivo
[4] = Cytotoxicity against human MDA-MB-435S cells after 72 hrs by MTT assay; type: functional, cell-based
[5] = test system: MCF7; experiment: Cytotoxicity against human MCF7 cells after 72 hrs by MTT assay; type: functional, cell-based; details: MCF7, 72 h
[6] = Cytotoxicity against mouse NIH/3T3 cells after 72 hrs by MTT assay; type: cell-based; details: NIH3T3, 72 h
[7] = Cytotoxicity against human HT1080 cells after 72 hrs by MTT assay; type: functional, cell-based; details: HT-1080, 72 h
[8] = Cytotoxicity against human MES-SA cells after 72 hrs by MTT assay; type: functional, cell-based
[9] = test system: 4T1; experiment: Antitumor activity against mouse 4T1 cells allografted in BALB/c mouse assessed as tumor growth inhibition at 15 mg/kg, ip administered 24 hrs post tumor implantation on even days of total 9 doses for 18 days measured after 18 days relative to control; type: functional
[10] = test system: Mus musculus; experiment: Toxicity in mouse 4T1 cells allografted BALB/c mouse assessed as body weight loss at 15 mg/kg, ip administered 24 hrs post tumor implantation on even days of total 9 doses for 18 days measured after 18 days relative to control; type: organism-based; design: dose 15 mg/kg, route intraperitoneal; details: in vivo, 432 h
[11] = test system: 4T1; experiment: Antitumor activity against mouse 4T1 cells allografted in BALB/c mouse assessed as tumor growth inhibition at 1.8 mg/kg, ip administered 24 hrs post tumor implantation on even days of total 9 doses for 18 days relative to control; type: functional; details: 4T1, ip, route intraperitoneal, read-out: TGI
[12] = test system: CCRF S-180; experiment: Antitumor activity against mouse S180 cells allografted in ICR mouse assessed as tumor growth inhibition at 15 mg/kg, ip qd administered 24 hrs post tumor implantation for 9 days measured after 9 days relative to control; type: functional, organism-based; design: dose 15 mg/kg

Compound | IC50 [1] | IC50 [2] | LD50 [3] | IC50 [4] | IC50 [5] | IC50 [6] | IC50 [7] | IC50 [8] | inhibition in vivo at 15 mg/kg ([9]; 4T1, ip, route intraperitoneal, read-out: TGI) | Activity [10] | inhibition in vivo at 1.8 mg/kg [11] | TGI [12] | TGI [9]
Cl.O=C(c1ccc(OCCN2CCCCCC2)cc1)c1c(-c2ccc(O)cc2)[se]c2cc(O)ccc12 | 5.2 µM | 36 µM | 400 mg/kg | 14 µM | 40 µM | 14 µM | 27 µM | 39 µM | – | – | – | – | –
CN(C)CCOc1ccc(C(=O)c2c(-c3ccc(F)cc3)[se]c3cc(F)ccc23)cc1.Cl | 3.8 µM | 3.8 µM | 313 mg/kg | 3.5 µM | 6.7 µM | 11 µM | 4.8 µM | 3.8 µM | – | – | – | – | –
Cl.O=C(c1ccc(OCCN2CCCCC2)cc1)c1[se]c2cc(O)ccc2c1-c1ccc(O)cc1 | 3.6 µM | 3.6 µM | 615 mg/kg | 32 µM | 25 µM | 28 µM | 30 µM | 14.3 µM | – | – | – | – | –
Cl.O=C(c1ccc(OCCN2CCOCC2)cc1)c1[se]c2cc(O)ccc2c1-c1ccc(O)cc1 | 5.2 µM | 3.4 µM | 465 mg/kg | 15.5 µM | 31 µM | 16 µM | 8.6 µM | 6.9 µM | – | – | – | – | –
CCCCCCCCN(C)CCOc1ccc(C(=O)c2c(-c3ccc(O)cc3)[se]c3cc(O)ccc23)cc1.Cl | 3.2 µM | 4.7 µM | 308 mg/kg | 4 µM | 4.7 µM | 8 µM | 4.7 µM | 4 µM | – | – | – | – | –
CNCCOc1ccc(C(=O)c2c(-c3ccc(O)cc3)[se]c3cc(O)ccc23)cc1.Cl | 6 µM | 46 µM | 452 mg/kg | 17 µM | 12 µM | 32 µM | 6 µM | 42 µM | – | – | – | – | –
Cl.O=C(c1ccc(OCCN2CCCCC2)cc1)c1c(-c2ccc(F)cc2)[se]c2cc(F)ccc12 | 4.5 µM | 3.6 µM | 280 mg/kg | 3.6 µM | 11.6 µM | 9 µM | 4.5 µM | 4.5 µM | – | – | – | – | –
Cl.O=C(c1ccc(OCCN2CCCCC2)cc1)c1c(-c2ccc(O)cc2)[se]c2cc(O)ccc12 | 5.4 µM | 5.4 µM | 446 mg/kg | 3.6 µM | 35 µM | 22 µM | 12 µM | 56 µM | 30% | Non-toxic | 4% | inactive | –
C[N+](C)(C)CCOc1ccc(C(=O)c2c(-c3ccc(O)cc3)[se]c3cc(O)ccc23)cc1.[Cl-] | 124 µM | – | 1540 mg/kg | – | – | 452 µM | 131 µM | – | – | – | – | – | –
O=[Se]([O-])[O-].[Na+].[Na+] [SODIUM SELENITE] | 64 µM | 8 µM | 105 mg/kg | 12 µM | 17 µM | 23 µM | 1.7 µM | 29 µM | – | – | – | – | –
Cl.O=C(c1ccc(OCCN2CCOCC2)cc1)c1c(-c2ccc(F)cc2)[se]c2cc(F)ccc12 | 21 µM | 25 µM | 1410 mg/kg | 168 µM | 121 µM | 363 µM | 27 µM | 53 µM | – | – | – | – | –
O=C(c1ccc(OCCN2CCCCC2)cc1)c1c(-c2ccc(O)cc2)sc2cc(O)ccc12 [RALOXIFENE] | 6.8 µM | 27 µM | 255 mg/kg | 26 µM | 50 µM | 7.8 µM | 34 µM | 37 µM | – | – | 70% | inactive | inactive
CN(C)CCOc1ccc(C(=O)c2[se]c3cc(O)ccc3c2-c2ccc(O)cc2)cc1.Cl | 3.9 µM | 3.8 µM | 674 mg/kg | 3.8 µM | 17.3 µM | 31 µM | 5.8 µM | 5.8 µM | – | – | – | – | –
Cl.O=C(c1ccc(OCCN2CCOCC2)cc1)c1c(-c2ccc(O)cc2)[se]c2cc(O)ccc12 | 8 µM | 9.8 µM | 553 mg/kg | 32 µM | 38 µM | 36 µM | 46 µM | 61 µM | – | – | – | – | –
Cl.O=C(c1ccc(OCCN2CCCC2)cc1)c1c(-c2ccc(O)cc2)[se]c2cc(O)ccc12 | 21 µM | 34 µM | 543 mg/kg | 43 µM | 33 µM | 42 µM | 36 µM | 32 µM | – | – | – | – | –
CN(C)CCOc1ccc(C(=O)c2c(-c3ccc(O)cc3)[se]c3cc(O)ccc23)cc1.Cl | 9 µM | 28 µM | 413 mg/kg | 26 µM | 22 µM | 20 µM | 48 µM | 51 µM | – | – | – | – | –

Reference: ChEMBL document CHEMBL3351494, “Selenium analogues of raloxifene as promising antiproliferative agents in treatment of breast cancer” (Eur J Med Chem, 2014)
